PubChem BioAssay AID1259407 (Chemical Carcinogenesis Research Information System (CCRIS), 2018)
The source made the active and inactive calls. No rule for the calls is given here.

Test system: CCRIS mutagenicity, Ames/micronucleus/aberration tests
Assay: CCRIS mutagenicity studies
[1] = Test System: AMES SALMONELLA TYPHIMURIUM, Strain/Indicator: TA98, Metabolic Activation: NONE, Method: STANDARD PLATE
[2] = Test System: AMES SALMONELLA TYPHIMURIUM, Strain/Indicator: TA98, Metabolic Activation: S-9, Method: STANDARD PLATE
[3] = Test System: AMES SALMONELLA TYPHIMURIUM, Strain/Indicator: TA100, Metabolic Activation: NONE, Method: STANDARD PLATE
[4] = Test System: AMES SALMONELLA TYPHIMURIUM, Strain/Indicator: TA100, Metabolic Activation: S-9, Method: STANDARD PLATE
[5] = Test System: AMES SALMONELLA TYPHIMURIUM, Strain/Indicator: TA1538, Metabolic Activation: NONE, Method: STANDARD PLATE
[6] = Test System: AMES SALMONELLA TYPHIMURIUM, Strain/Indicator: TA1538, Metabolic Activation: RAT, LIVER, S-9, AROCLOR 1254, Method: STANDARD PLATE

CC(C)COC(=O)CCCCC(=O)OCC(C)C
mutagenic call (Test System: AMES SALMONELLA TYPHIMURIUM, Strain/Indicator: TA97, Metabolic Activation: NONE, Method: STANDARD PLATE): inactive; negative
mutagenic call (Test System: AMES SALMONELLA TYPHIMURIUM, Strain/Indicator: TA97, Metabolic Activation: S-9, Method: STANDARD PLATE): inactive; negative
mutagenic call [1]: inactive; negative
mutagenic call [2]: inactive; negative
mutagenic call [3]: inactive; negative
mutagenic call [4]: inactive; negative
mutagenic call (Test System: AMES SALMONELLA TYPHIMURIUM, Strain/Indicator: TA102, Metabolic Activation: NONE, Method: STANDARD PLATE): inactive; negative
mutagenic call (Test System: AMES SALMONELLA TYPHIMURIUM, Strain/Indicator: TA102, Metabolic Activation: S-9, Method: STANDARD PLATE): inactive; negative
mutagenic call (Test System: E.COLI, Strain/Indicator: WP2 (PKM101), Metabolic Activation: NONE, Method: STANDARD PLATE): inactive; negative
mutagenic call (Test System: E.COLI, Strain/Indicator: WP2 (PKM101), Metabolic Activation: S-9, Method: STANDARD PLATE): inactive; negative

CCCCO[C@@H](CC)CO
mutagenic call (Test System: AMES SALMONELLA TYPHIMURIUM, Strain/Indicator: TA98, Metabolic Activation: NONE, Method: PREINCUBATION): inactive; negative
mutagenic call (Test System: AMES SALMONELLA TYPHIMURIUM, Strain/Indicator: TA98, Metabolic Activation: RAT LIVER S-9, PHENOBARBITAL AND BETA-NAPHTHOFLAVONE, Method: PREINCUBATION): inactive; negative
mutagenic call (Test System: AMES SALMONELLA TYPHIMURIUM, Strain/Indicator: TA100, Metabolic Activation: NONE, Method: PREINCUBATION): inactive; negative
mutagenic call (Test System: AMES SALMONELLA TYPHIMURIUM, Strain/Indicator: TA100, Metabolic Activation: RAT LIVER S-9, PHENOBARBITAL AND BETA-NAPHTHOFLAVONE, Method: PREINCUBATION): inactive; negative
mutagenic call (Test System: AMES SALMONELLA TYPHIMURIUM, Strain/Indicator: TA1535, Metabolic Activation: NONE, Method: PREINCUBATION): inactive; negative
mutagenic call (Test System: AMES SALMONELLA TYPHIMURIUM, Strain/Indicator: TA1535, Metabolic Activation: RAT LIVER S-9, PHENOBARBITAL AND BETA-NAPHTHOFLAVONE, Method: PREINCUBATION): inactive; negative
mutagenic call (Test System: AMES SALMONELLA TYPHIMURIUM, Strain/Indicator: TA1537, Metabolic Activation: NONE, Method: PREINCUBATION): inactive; negative
mutagenic call (Test System: AMES SALMONELLA TYPHIMURIUM, Strain/Indicator: TA1537, Metabolic Activation: RAT LIVER S-9, PHENOBARBITAL AND BETA-NAPHTHOFLAVONE, Method: PREINCUBATION): inactive; negative
mutagenic call (Test System: E.COLI, Strain/Indicator: WP2UVRA/PKM101, Metabolic Activation: NONE, Method: PREINCUBATION): inactive; negative
mutagenic call (Test System: E.COLI, Strain/Indicator: WP2UVRA/PKM101, Metabolic Activation: RAT LIVER S-9, PHENOBARBITAL AND BETA-NAPHTHOFLAVONE, Method: PREINCUBATION): inactive; negative

CCN(CC)c1ccc(N=Nc2ccc(N=Nc3c(S(=O)(=O)O)cc4ccc(N)cc4c3O)c(OC)c2)cc1
mutagenic call [1]: inactive; negative
mutagenic call (Test System: AMES SALMONELLA TYPHIMURIUM, Strain/Indicator: TA98, Metabolic Activation: RAT, LIVER, S-9, AROCLOR 1254, Method: STANDARD PLATE): active; positive
mutagenic call [3]: inactive; negative
mutagenic call (Test System: AMES SALMONELLA TYPHIMURIUM, Strain/Indicator: TA100, Metabolic Activation: RAT, LIVER, S-9, AROCLOR 1254, Method: STANDARD PLATE): inactive; negative
mutagenic call [5]: inactive; negative
mutagenic call [6]: active; positive

CCCCCN(CCCC)N=O
mutagenic call (Test System: AMES SALMONELLA TYPHIMURIUM, Strain/Indicator: TA100, Metabolic Activation: RAT, LIVER, S-9, KC500 OR PHENOBARBITAL, Method: LIQUID SUSPENSION): active; positive

N=c1cc2oc3cc(N)ccc3nc-2c2ccccc12
mutagenic call [5]: inactive; negative
mutagenic call [6]: active; positive

COc1cc(Oc2ccc(Cl)cc2Cl)ccc1N
mutagenic call [2]: inactive; negative
mutagenic call [4]: active; positive
mutagenic call (Test System: AMES SALMONELLA TYPHIMURIUM, Strain/Indicator: YG1021, Metabolic Activation: S-9, Method: STANDARD PLATE): inactive; negative
mutagenic call (Test System: AMES SALMONELLA TYPHIMURIUM, Strain/Indicator: YG1024, Metabolic Activation: S-9, Method: STANDARD PLATE): active; positive
mutagenic call (Test System: AMES SALMONELLA TYPHIMURIUM, Strain/Indicator: YG1026, Metabolic Activation: S-9, Method: STANDARD PLATE): active; positive
mutagenic call (Test System: AMES SALMONELLA TYPHIMURIUM, Strain/Indicator: YG1029, Metabolic Activation: S-9, Method: STANDARD PLATE): active; positive
